Key:
Type in all cases: functional
B16-F10 [1] = test: Cytotoxicity against B16F10 cells at 0.1 uM after 72 hrs; details: Mus musculus, B16-F10, 72 h
B16-F10 [2] = test: Cytotoxicity against B16F10 cells at 1.0 uM after 72 hrs; details: Mus musculus, B16-F10, 72 h
B16-F10 [3] = test: Cytotoxicity against B16F10 cells at 10 uM after 72 hrs; details: Mus musculus, B16-F10, 72 h
HT-1080 [4] = test: Cytotoxicity against HT1080 cells at 10 uM after 72 hrs; details: Homo sapiens, HT-1080, 72 h
HT-1080 [5] = test: Cytotoxicity against HT1080 cells at 0.1 uM after 72 hrs; details: Homo sapiens, HT-1080, 72 h
HT-1080 [6] = test: Cytotoxicity against HT1080 cells at 1.0 uM after 72 hrs; details: Homo sapiens, HT-1080, 72 h
U-937 [7] = test: Cytotoxicity against U937 cells at 1.0 uM after 72 hrs; details: Homo sapiens, U-937, 72 h
U-937 [8] = test: Cytotoxicity against U937 cells at 10 uM after 72 hrs; details: Homo sapiens, U-937, 72 h
B16-F10 [9] = test: Cytotoxicity against B16F10 cells at 0.1 uM after 48 hrs; details: Mus musculus, B16-F10, 48 h
B16-F10 [10] = test: Cytotoxicity against B16F10 cells at 1.0 uM after 48 hrs; details: Mus musculus, B16-F10, 48 h
B16-F10 [11] = test: Cytotoxicity against B16F10 cells at 10 uM after 48 hrs; details: Mus musculus, B16-F10, 48 h
HT-1080 [12] = test: Cytotoxicity against HT1080 cells at 10 uM after 24 hrs; details: Homo sapiens, HT-1080, 24 h
HT-1080 [13] = test: Cytotoxicity against HT1080 cells at 0.1 uM after 48 hrs; details: Homo sapiens, HT-1080, 48 h
HT-1080 [14] = test: Cytotoxicity against HT1080 cells at 1.0 uM after 48 hrs; details: Homo sapiens, HT-1080, 48 h
HT-1080 [15] = test: Cytotoxicity against HT1080 cells at 10 uM after 48 hrs; details: Homo sapiens, HT-1080, 48 h
U-937 [16] = test: Cytotoxicity against U937 cells at 1.0 uM after 24 hrs; details: Homo sapiens, U-937, 24 h
U-937 [17] = test: Cytotoxicity against U937 cells at 10 uM after 24 hrs; details: Homo sapiens, U-937, 24 h
U-937 [18] = test: Cytotoxicity against U937 cells at 1.0 uM after 48 hrs; details: Homo sapiens, U-937, 48 h
U-937 [19] = test: Cytotoxicity against U937 cells at 10 uM after 48 hrs; details: Homo sapiens, U-937, 48 h
B16-F10 [20] = test: Cytotoxicity against B16F10 cells at 10 uM after 24 hrs; details: Mus musculus, B16-F10, 24 h
HT-1080 [21] = test: Cytotoxicity against HT1080 cells at 0.1 uM after 24 hrs; details: Homo sapiens, HT-1080, 24 h
HT-1080 [22] = test: Cytotoxicity against HT1080 cells at 1.0 uM after 24 hrs; details: Homo sapiens, HT-1080, 24 h
B16-F10 [23] = test: Cytotoxicity against B16F10 cells at 1.0 uM after 24 hrs; details: Mus musculus, B16-F10, 24 h

| SMILES | inhibition at 0.1 µM (B16-F10 [1]) [%] | inhibition at 1 µM (B16-F10 [2]) [%] | inhibition at 10 µM (B16-F10 [3]) [%] | inhibition at 10 µM (HT-1080 [4]) [%] | inhibition at 0.1 µM (HT-1080 [5]) [%] | inhibition at 1 µM (HT-1080 [6]) [%] | inhibition at 1 µM (U-937 [7]) [%] | inhibition at 10 µM (U-937 [8]) [%] | also measured |
| --- | --- | --- | --- | --- | --- | --- | --- | --- | --- |
| COc1cc([C@H]2Oc3c(OC)cc(CCCO)cc3[C@@H]2CO)ccc1O [DIHYDRODEHYDRODICONIFERY ALCOHOL] | -2.4 | -5.3 | -6.5 | 11.9 | 8.9 | 5.2 | 9.3 | 13.4 |  |
| C[C@H]1CC[C@H]2[C@H](C)CC[C@@H](c3ccoc3)[N+]2([O-])C1 (stereo partly drawn) [NUPHARIDINE] | 0.6 | 5.3 | 4.1 | -9 | -3.3 | -9 | 8 | 11.5 |  |
| C[C@@H]1CC[C@@H](c2ccoc2)N2C[C@@]3(CC[C@@H]12)CS[C@]1(CC[C@H]2[C@H](C)CC[C@@H](c4ccoc4)N2C1)C3 [THIONUPHLUTINE B] | 1.7 | -2.2 | 2.2 | -12 | -10.8 | 0.9 | 9.1 | 7.8 |  |
| C[C@@H]1CC[C@@H](c2ccoc2)N2C[C@]3(CC[C@@H]12)C[S+]([O-])[C@]1(CC[C@H]2[C@H](C)CC[C@@H](c4ccoc4)N2C1)C3 (stereo partly drawn) | -3.7 | 7.7 | 9.1 | 6.8 | -0.4 | -1.8 | 5.8 | 10 |  |
| C[C@@H]1CC[C@@H](c2ccoc2)N2C[C@@]3(CC[C@@H]12)CS[C@@]1(CC[C@H]2[C@H](C)CC[C@@H](c4ccoc4)N2C1)C3 [THIOBINUPHARIDINE] | 6.8 | 7.9 | 4.4 | -11.7 | 9.9 | 6.3 | 6.9 | 10.9 |  |
| C[C@@H]1CC[C@@H](c2ccoc2)N2[C@H]1CC[C@@]1(CS[C@@]3(CC[C@H]4[C@H](C)CC[C@@H](c5ccoc5)N4[C@@H]3O)C1)[C@H]2O | -3.5 | -6 | 54.8 | 75.3 | 0.1 | -0.9 | 1.3 | 81.6 | inhibition at 0.1 µM (B16-F10 [9]): -8%; inhibition at 1 µM (B16-F10 [10]): -15%; inhibition at 10 µM (B16-F10 [11]): 51.8%; inhibition at 10 µM (HT-1080 [12]): 19.3%; inhibition at 0.1 µM (HT-1080 [13]): 9%; inhibition at 1 µM (HT-1080 [14]): 0.5%; inhibition at 10 µM (HT-1080 [15]): 75%; inhibition at 1 µM (U-937 [16]): 5.3%; inhibition at 10 µM (U-937 [17]): 54.7%; inhibition at 1 µM (U-937 [18]): 2.3%; inhibition at 10 µM (U-937 [19]): 80%; inhibition at 10 µM (B16-F10 [20]): 16.6% |
| C[C@@H]1CC[C@@H](c2ccoc2)N2C[C@@]3(CC[C@@H]12)CS[C@]1(CC[C@H]2[C@H](C)CC[C@@H](c4ccoc4)N2[C@@H]1O)C3 [6-HYDROXYTHIONUPHLUTINE B] | 0.9 | 69.3 | 99.1 | 98.7 | 1 | 63.5 | 85.3 | 94.1 | inhibition at 0.1 µM (B16-F10 [9]): 0.3%; inhibition at 1 µM (B16-F10 [10]): 65%; inhibition at 10 µM (B16-F10 [11]): 98.2%; inhibition at 0.1 µM (HT-1080 [21]): 6.3%; inhibition at 1 µM (HT-1080 [22]): 42%; inhibition at 10 µM (HT-1080 [12]): 95.9%; inhibition at 0.1 µM (HT-1080 [13]): 8.6%; inhibition at 1 µM (HT-1080 [14]): 53.3%; inhibition at 10 µM (HT-1080 [15]): 98%; inhibition at 1 µM (U-937 [16]): 74.6%; inhibition at 10 µM (U-937 [17]): 80%; inhibition at 1 µM (U-937 [18]): 89%; inhibition at 10 µM (U-937 [19]): 91.3%; inhibition at 1 µM (B16-F10 [23]): -22.9%; inhibition at 10 µM (B16-F10 [20]): 91.5% |
